Assay results published in patent EP0462621A2, “Use of particular compounds for manufacture of pharmaceutical formulations for treatment against various parasites, mycoplasmas, other indications and other infections” (Prendergast, Patrick Thomas, priority 1990, dated 1991).

Assays:
HIV-I = experiment: Experiment la(a): macrophage cells, HIV-I, p24 antigen capture radio-immunoassay; format: cell-based; details: for TITER: control titer 100000; for wells positive for HIV-I p24, LOG VIRUS DILUTION -1 / wells positive for HIV-I p24, LOG VIRUS DILUTION -2 / wells positive for HIV-I p24, LOG VIRUS DILUTION -3 / wells positive for HIV-I p24, LOG VIRUS DILUTION -4 / wells positive for HIV-I p24, LOG VIRUS DILUTION -5 / wells positive for HIV-I p24, LOG VIRUS DILUTION -6: duplicate runs
Method: Fresh macrophage cultures were obtained by incubation of mononuclear cells obtained from a leukopak directly in the wells of a microtiter plate having 6 wells per row. After removal of non-adherent cells, each row of the adherent macrophages was infected with 10-fold serial dilutions of HIV-I, with the use of polybrene to enhance uptake of the virus. After one to two hours, the virus inoculum was removed and replaced with fresh normal growth medium. The fresh medium for each row contained a particular concentration of AZT, dideoxy cytidine (ddC), or compound la, as indicated by the left-hand column of Table la(a). The first row of wells acted as a control, and to it was added fresh medium containing none of the three drugs. Medium levels were maintained for two to four weeks to allow replication of the virus to take place, with at least one complete fluid change to remove residual virus inoculum. The contents of each well were then tested for the level of HIV p24 antigen present using a commercially available antigen capture kit employing a radio-immunoassay which can detect as little as 10'^9gm of p24 present in a sample. The above procedure was done in duplicate runs.
The results were interpreted as follows: 2/2, for example, means that both the corresponding wells of both runs were positive for HIV-I p24, while 0/2 means that neither well was positive. The titers are given in the next to last column; where 1/2 wells was positive, an intermediate value was given to the titer that is half way between the two dilutions when calculated on a logarithmic scale. 3 µM IPA was positive in both wells at a dilution of 1/10,000 and in neither well at 1/100,000. Thus, one half log interval between 10^4 and 10^5 is 10^4.5, or 30,000.

T lymphocytes = experiment: Lymphocyte blastogenesis assay, T lymphocytes (PHA); format: cell-based, human
Method: T and B lymphocytes from normal human donors were incubated for 30 minutes at various dose levels of the compounds indicated. The lymphocytes were added in triplicate wells in gentamicin and phytohemagglutinin (PHA) (a T cell mitogen), pokeweed mitogen (PWM) (a B cell mitogen) and allogeneic mononuclear cells (mixed leukocyte cultures; MLC) or media containing the above additives. The lymphocyte blastogenesis assay is described in detail below.
The data are represented as the mean of the three replicates. The results are presented in Charts la(e) (i) and la(e) (ii) (Figs. 1 and 2). […] A reduction of both T lymphocytes' abilities to proliferate was obtained when 100 u.M or greater concentrations of IPA was added to the cell cultures. Proliferative activity of T lymphocytes by 25% at the 30 u.M concentration of IPA in the experiment.
• 1. Mononuclear cells are separated from whole blood by differential centrifugation using a synthetic separation medium, or are thawed from a cryopreserved preparation. The cells are washed and resuspended in media (RPMI - 1640, L-Glutamine 2mM, Herpes Buffer 25mM, Gentamicin 50 ug/ml, Human AB Serum-heat inactivated (56°, 30°) 20%). • 2. A viable cell count is determined. • 3. Cell concentration is adjusted to 2 x 10^6 /ml in media. • 4. The cell suspension is added to wells of a 96-well flat bottom plate in 0.1 ml aliquots (2 x 10^5 cells). • 5. The selected mitogens and/or antigens (in media without serum) are added to the cells in the wells also in 0.1 ml aliquots. • 6. The cultures are incubated for 3-7 days (depending upon the mitogen or antigen) at 37° C in a humidified 5% C02 atmosphere. • 7. Six to eight hours before termination of cultures 0.05 ml (1 µCi) of ^3HTdR sp. act 6.7 Ci/mM (20 µCi/ml stock) is added to each well. • 8. At termination of cultures the cells are harvested onto strips of scintillation-grade fibreglass paper using a multiple sample harvester. • 9. Perforated disks from the fibreglass paper of the harvested cultures are placed each into scintillation vials to which is then added 5 ml of toluene based scintillation cocktail. • 10. The vials are counted in a liquid scintillation counter for one minute where the amount of incorporated ^3HTdR is determined.
net CPM = xCPM of mitogen/antigen cultures - xCPM of media cultures.

SMILES: CC(C)=CCNc1ncnc2c1ncn2[C@@H]1O[C@H](CO)[C@@H](O)[C@H]1O [IPA, N^6-(Δ^2-isopentenyl) adenosine]
- activity at 3 µM (HIV-I; Human immunodeficiency virus 1, Macrophage, drug 3 μM, titer relative to control, read-out: PERCENT OF CONTROL): 30%
- activity at 10 µM (HIV-I; Human immunodeficiency virus 1, Macrophage, drug 10 μM, titer relative to control, read-out: PERCENT OF CONTROL): 10%
- activity at 30 µM (HIV-I; Human immunodeficiency virus 1, Macrophage, drug 30 μM, titer relative to control, read-out: PERCENT OF CONTROL): 1%
- activity at 100 µM (HIV-I; Human immunodeficiency virus 1, Macrophage, drug 100 μM, titer relative to control, read-out: PERCENT OF CONTROL): 0.3%
- activity at 300 µM (HIV-I; Human immunodeficiency virus 1, Macrophage, drug 300 μM, titer relative to control, read-out: PERCENT OF CONTROL): 0%
- activity at 1000 µM (HIV-I; Human immunodeficiency virus 1, Macrophage, drug 1000 μM, titer relative to control, read-out: PERCENT OF CONTROL): 0%
- TITER (HIV-I; drug 3 μM): 30000
- wells positive for HIV-I p24, LOG VIRUS DILUTION -1 (HIV-I; drug 3 μM): 2/2
- wells positive for HIV-I p24, LOG VIRUS DILUTION -2 (HIV-I; drug 3 μM): 2/2
- wells positive for HIV-I p24, LOG VIRUS DILUTION -3 (HIV-I; drug 3 μM): 2/2
- wells positive for HIV-I p24, LOG VIRUS DILUTION -4 (HIV-I; drug 3 μM): 2/2
- wells positive for HIV-I p24, LOG VIRUS DILUTION -5 (HIV-I; drug 3 μM): 0/2
- wells positive for HIV-I p24, LOG VIRUS DILUTION -6 (HIV-I; drug 3 μM): 0/2
- TITER (HIV-I; drug 10 μM): 10000
- wells positive for HIV-I p24, LOG VIRUS DILUTION -1 (HIV-I; drug 10 μM): 2/2
- wells positive for HIV-I p24, LOG VIRUS DILUTION -2 (HIV-I; drug 10 μM): 2/2
- wells positive for HIV-I p24, LOG VIRUS DILUTION -3 (HIV-I; drug 10 μM): 2/2
- wells positive for HIV-I p24, LOG VIRUS DILUTION -4 (HIV-I; drug 10 μM): 1/2
- wells positive for HIV-I p24, LOG VIRUS DILUTION -5 (HIV-I; drug 10 μM): 0/2
- wells positive for HIV-I p24, LOG VIRUS DILUTION -6 (HIV-I; drug 10 μM): 0/2
- TITER (HIV-I; drug 30 μM): 1000
- wells positive for HIV-I p24, LOG VIRUS DILUTION -1 (HIV-I; drug 30 μM): 2/2
- wells positive for HIV-I p24, LOG VIRUS DILUTION -2 (HIV-I; drug 30 μM): 2/2
- wells positive for HIV-I p24, LOG VIRUS DILUTION -3 (HIV-I; drug 30 μM): 1/2
- wells positive for HIV-I p24, LOG VIRUS DILUTION -4 (HIV-I; drug 30 μM): 0/2
- wells positive for HIV-I p24, LOG VIRUS DILUTION -5 (HIV-I; drug 30 μM): 0/2
- wells positive for HIV-I p24, LOG VIRUS DILUTION -6 (HIV-I; drug 30 μM): 0/2
- TITER (HIV-I; drug 100 μM): 300
- wells positive for HIV-I p24, LOG VIRUS DILUTION -1 (HIV-I; drug 100 μM): 2/2
- wells positive for HIV-I p24, LOG VIRUS DILUTION -2 (HIV-I; drug 100 μM): 2/2
- wells positive for HIV-I p24, LOG VIRUS DILUTION -3 (HIV-I; drug 100 μM): 0/2
- wells positive for HIV-I p24, LOG VIRUS DILUTION -4 (HIV-I; drug 100 μM): 0/2
- wells positive for HIV-I p24, LOG VIRUS DILUTION -5 (HIV-I; drug 100 μM): 0/2
- wells positive for HIV-I p24, LOG VIRUS DILUTION -6 (HIV-I; drug 100 μM): 0/2
- TITER (HIV-I; drug 300 μM): 10
- wells positive for HIV-I p24, LOG VIRUS DILUTION -1 (HIV-I; drug 300 μM): 0/2
- wells positive for HIV-I p24, LOG VIRUS DILUTION -2 (HIV-I; drug 300 μM): 0/2
- wells positive for HIV-I p24, LOG VIRUS DILUTION -3 (HIV-I; drug 300 μM): 0/2
- wells positive for HIV-I p24, LOG VIRUS DILUTION -4 (HIV-I; drug 300 μM): 0/2
- wells positive for HIV-I p24, LOG VIRUS DILUTION -5 (HIV-I; drug 300 μM): 0/2
- wells positive for HIV-I p24, LOG VIRUS DILUTION -6 (HIV-I; drug 300 μM): 0/2
- TITER (HIV-I; drug 1000 μM): 10
- wells positive for HIV-I p24, LOG VIRUS DILUTION -1 (HIV-I; drug 1000 μM): 0/2
- wells positive for HIV-I p24, LOG VIRUS DILUTION -2 (HIV-I; drug 1000 μM): 0/2
- wells positive for HIV-I p24, LOG VIRUS DILUTION -3 (HIV-I; drug 1000 μM): 0/2
- wells positive for HIV-I p24, LOG VIRUS DILUTION -4 (HIV-I; drug 1000 μM): 0/2
- wells positive for HIV-I p24, LOG VIRUS DILUTION -5 (HIV-I; drug 1000 μM): 0/2
- wells positive for HIV-I p24, LOG VIRUS DILUTION -6 (HIV-I; drug 1000 μM): 0/2
- T lymphocyte responsiveness (T lymphocytes; 10 µM, third experiment): Increased
- T lymphocyte function (T lymphocytes; 1000 µM down to 10 µM, third experiment (Figs. 7 and 8)): reductions
- T lymphocyte proliferation (T lymphocytes; 0.1 - 10 µM, first experiment): No effect or an increase
- reduction in T lymphocyte function (T lymphocytes; 30 -35 u.M, third experiment): ~25%
- T lymphocyte proliferation (T lymphocytes; 30 down to 10 u.M, second experiment (Figs. 3 and 4)): No appreciable reduction
- Proliferative activity of T lymphocytes, change (T lymphocytes; 30 u.M, first experiment): 25%
- T lymphocytes' abilities to proliferate (T lymphocytes; 100 u.M or greater, first experiment (Figs. 1 and 2)): reduction
